Measurements as given in the NIST ThermoML archive (doi:10.1021/je100864e).
Numbers after ± are expanded uncertainties.

Test: mn = molality of the nth substance listed, in mol/kg
Conditions: 101 kPa, Liquid

O=C([O-])CC(O)(CC(=O)[O-])C(=O)O.[Na+].[Na+] [disodium hydrogen citrate] + O
mass density (288.15 K, m1 = 0.0095): 1000.55 ± 0.24 kg/m3 | mass density (288.15 K, m1 = 0.0114): 1000.84 ± 0.24 kg/m3 | mass density (288.15 K, m1 = 0.0133): 1001.13 ± 0.24 kg/m3 | mass density (288.15 K, m1 = 0.015): 1001.38 ± 0.24 kg/m3 | mass density (288.15 K, m1 = 0.0172): 1001.71 ± 0.24 kg/m3 | mass density (288.15 K, m1 = 0.0187): 1001.93 ± 0.25 kg/m3 | mass density (288.15 K, m1 = 0.021): 1002.28 ± 0.25 kg/m3 | mass density (288.15 K, m1 = 0.0229): 1002.56 ± 0.24 kg/m3 | mass density (288.15 K, m1 = 0.0267): 1003.12 ± 0.25 kg/m3 | mass density (288.15 K, m1 = 0.0307): 1003.73 ± 0.25 kg/m3 | mass density (288.15 K, m1 = 0.0344): 1004.28 ± 0.25 kg/m3 | mass density (288.15 K, m1 = 0.0374): 1004.73 ± 0.25 kg/m3 | mass density (288.15 K, m1 = 0.057): 1007.64 ± 0.25 kg/m3 | mass density (288.15 K, m1 = 0.0771): 1010.58 ± 0.26 kg/m3 | mass density (288.15 K, m1 = 0.0953): 1013.22 ± 0.26 kg/m3 | mass density (288.15 K, m1 = 0.1157): 1016.16 ± 0.27 kg/m3 | mass density (288.15 K, m1 = 0.1332): 1018.67 ± 0.27 kg/m3 | mass density (288.15 K, m1 = 0.1542): 1021.64 ± 0.28 kg/m3 | mass density (288.15 K, m1 = 0.1773): 1024.9 ± 0.29 kg/m3 | mass density (288.15 K, m1 = 0.1964): 1027.57 ± 0.29 kg/m3 | mass density (288.15 K, m1 = 0.2144): 1030.07 ± 0.3 kg/m3 | mass density (288.15 K, m1 = 0.2229): 1031.25 ± 0.3 kg/m3 | mass density (288.15 K, m1 = 0.2509): 1035.09 ± 0.31 kg/m3 | mass density (288.15 K, m1 = 0.283): 1039.47 ± 0.32 kg/m3 | mass density (288.15 K, m1 = 0.2965): 1041.3 ± 0.32 kg/m3 | mass density (288.15 K, m1 = 0.3375): 1046.82 ± 0.33 kg/m3 | mass density (293.15 K, m1 = 0.0095): 999.632 ± 0.27 kg/m3 | mass density (293.15 K, m1 = 0.0114): 999.92 ± 0.24 kg/m3 | mass density (293.15 K, m1 = 0.0133): 1000.21 ± 0.24 kg/m3 | mass density (293.15 K, m1 = 0.015): 1000.46 ± 0.24 kg/m3 | mass density (293.15 K, m1 = 0.0172): 1000.78 ± 0.24 kg/m3 | mass density (293.15 K, m1 = 0.0187): 1000.99 ± 0.25 kg/m3 | mass density (293.15 K, m1 = 0.021): 1001.35 ± 0.24 kg/m3 | mass density (293.15 K, m1 = 0.0229): 1001.62 ± 0.24 kg/m3 | mass density (293.15 K, m1 = 0.0267): 1002.18 ± 0.24 kg/m3 | mass density (293.15 K, m1 = 0.0307): 1002.77 ± 0.24 kg/m3 | mass density (293.15 K, m1 = 0.0344): 1003.32 ± 0.25 kg/m3 | mass density (293.15 K, m1 = 0.0374): 1003.76 ± 0.23 kg/m3 | mass density (293.15 K, m1 = 0.057): 1006.63 ± 0.25 kg/m3 | mass density (293.15 K, m1 = 0.0771): 1009.54 ± 0.26 kg/m3 | mass density (293.15 K, m1 = 0.0953): 1012.15 ± 0.26 kg/m3 | mass density (293.15 K, m1 = 0.1157): 1015.05 ± 0.27 kg/m3 | mass density (293.15 K, m1 = 0.1332): 1017.54 ± 0.27 kg/m3 | mass density (293.15 K, m1 = 0.1542): 1020.48 ± 0.28 kg/m3 | mass density (293.15 K, m1 = 0.1773): 1023.7 ± 0.28 kg/m3 | mass density (293.15 K, m1 = 0.1964): 1026.33 ± 0.29 kg/m3 | mass density (293.15 K, m1 = 0.2144): 1028.81 ± 0.29 kg/m3 | mass density (293.15 K, m1 = 0.2229): 1029.97 ± 0.3 kg/m3 | mass density (293.15 K, m1 = 0.2509): 1033.78 ± 0.3 kg/m3 | mass density (293.15 K, m1 = 0.283): 1038.11 ± 0.31 kg/m3 | mass density (293.15 K, m1 = 0.2965): 1039.92 ± 0.32 kg/m3 | mass density (293.15 K, m1 = 0.3375): 1045.39 ± 0.33 kg/m3 | mass density (298.15 K, m1 = 0.0095): 998.455 ± 0.27 kg/m3 | mass density (298.15 K, m1 = 0.0114): 998.74 ± 0.24 kg/m3 | mass density (298.15 K, m1 = 0.0133): 999.021 ± 0.24 kg/m3 | mass density (298.15 K, m1 = 0.015): 999.268 ± 0.24 kg/m3 | mass density (298.15 K, m1 = 0.0172): 999.588 ± 0.24 kg/m3 | mass density (298.15 K, m1 = 0.0187): 999.8 ± 0.24 kg/m3 | mass density (298.15 K, m1 = 0.021): 1000.15 ± 0.24 kg/m3 | mass density (298.15 K, m1 = 0.0229): 1000.42 ± 0.24 kg/m3 | mass density (298.15 K, m1 = 0.0267): 1000.97 ± 0.24 kg/m3 | mass density (298.15 K, m1 = 0.0307): 1001.56 ± 0.24 kg/m3 | mass density (298.15 K, m1 = 0.0344): 1002.1 ± 0.24 kg/m3 | mass density (298.15 K, m1 = 0.0374): 1002.54 ± 0.23 kg/m3 | mass density (298.15 K, m1 = 0.057): 1005.38 ± 0.25 kg/m3 | mass density (298.15 K, m1 = 0.0771): 1008.25 ± 0.25 kg/m3 | mass density (298.15 K, m1 = 0.0953): 1010.84 ± 0.26 kg/m3 | mass density (298.15 K, m1 = 0.1157): 1013.71 ± 0.26 kg/m3 | mass density (298.15 K, m1 = 0.1332): 1016.17 ± 0.27 kg/m3 | mass density (298.15 K, m1 = 0.1542): 1019.09 ± 0.27 kg/m3 | mass density (298.15 K, m1 = 0.1773): 1022.26 ± 0.28 kg/m3 | mass density (298.15 K, m1 = 0.1964): 1024.88 ± 0.28 kg/m3 | mass density (298.15 K, m1 = 0.2144): 1027.33 ± 0.29 kg/m3 | mass density (298.15 K, m1 = 0.2229): 1028.48 ± 0.29 kg/m3 | mass density (298.15 K, m1 = 0.2509): 1032.26 ± 0.3 kg/m3 | mass density (298.15 K, m1 = 0.283): 1036.55 ± 0.31 kg/m3 | mass density (298.15 K, m1 = 0.2965): 1038.34 ± 0.31 kg/m3 | mass density (298.15 K, m1 = 0.3375): 1043.77 ± 0.32 kg/m3 | mass density (303.15 K, m1 = 0.0095): 997.044 ± 0.27 kg/m3 | mass density (303.15 K, m1 = 0.0114): 997.324 ± 0.25 kg/m3 | mass density (303.15 K, m1 = 0.0133): 997.605 ± 0.24 kg/m3 | mass density (303.15 K, m1 = 0.015): 997.849 ± 0.24 kg/m3 | mass density (303.15 K, m1 = 0.0172): 998.164 ± 0.24 kg/m3 | mass density (303.15 K, m1 = 0.0187): 998.374 ± 0.25 kg/m3 | mass density (303.15 K, m1 = 0.021): 998.719 ± 0.24 kg/m3 | mass density (303.15 K, m1 = 0.0229): 998.99 ± 0.24 kg/m3 | mass density (303.15 K, m1 = 0.0267): 999.532 ± 0.24 kg/m3 | mass density (303.15 K, m1 = 0.0307): 1000.12 ± 0.24 kg/m3 | mass density (303.15 K, m1 = 0.0344): 1000.65 ± 0.24 kg/m3 | mass density (303.15 K, m1 = 0.0374): 1001.09 ± 0.23 kg/m3 | mass density (303.15 K, m1 = 0.057): 1003.9 ± 0.25 kg/m3 | mass density (303.15 K, m1 = 0.0771): 1006.75 ± 0.25 kg/m3 | mass density (303.15 K, m1 = 0.0953): 1009.31 ± 0.26 kg/m3 | mass density (303.15 K, m1 = 0.1157): 1012.16 ± 0.26 kg/m3 | mass density (303.15 K, m1 = 0.1332): 1014.59 ± 0.27 kg/m3 | mass density (303.15 K, m1 = 0.1542): 1017.48 ± 0.27 kg/m3 | mass density (303.15 K, m1 = 0.1773): 1020.63 ± 0.28 kg/m3 | mass density (303.15 K, m1 = 0.1964): 1023.22 ± 0.28 kg/m3 | mass density (303.15 K, m1 = 0.2144): 1025.66 ± 0.29 kg/m3 | mass density (303.15 K, m1 = 0.2229): 1026.8 ± 0.29 kg/m3 | mass density (303.15 K, m1 = 0.2509): 1030.54 ± 0.3 kg/m3 | mass density (303.15 K, m1 = 0.283): 1034.8 ± 0.3 kg/m3 | mass density (303.15 K, m1 = 0.2965): 1036.58 ± 0.31 kg/m3 | mass density (303.15 K, m1 = 0.3375): 1041.96 ± 0.32 kg/m3 | mass density (308.15 K, m1 = 0.0095): 995.414 ± 0.25 kg/m3 | mass density (308.15 K, m1 = 0.0114): 995.691 ± 0.25 kg/m3 | mass density (308.15 K, m1 = 0.0133): 995.97 ± 0.25 kg/m3 | mass density (308.15 K, m1 = 0.015): 996.213 ± 0.24 kg/m3 | mass density (308.15 K, m1 = 0.0172): 996.524 ± 0.24 kg/m3 | mass density (308.15 K, m1 = 0.0187): 996.735 ± 0.25 kg/m3 | mass density (308.15 K, m1 = 0.021): 997.077 ± 0.24 kg/m3 | mass density (308.15 K, m1 = 0.0229): 997.344 ± 0.24 kg/m3 | mass density (308.15 K, m1 = 0.0267): 997.881 ± 0.24 kg/m3 | mass density (308.15 K, m1 = 0.0307): 998.461 ± 0.24 kg/m3 | mass density (308.15 K, m1 = 0.0344): 998.99 ± 0.24 kg/m3 | mass density (308.15 K, m1 = 0.0374): 999.421 ± 0.24 kg/m3 | mass density (308.15 K, m1 = 0.057): 1002.21 ± 0.24 kg/m3 | mass density (308.15 K, m1 = 0.0771): 1005.03 ± 0.25 kg/m3 | mass density (308.15 K, m1 = 0.0953): 1007.58 ± 0.25 kg/m3 | mass density (308.15 K, m1 = 0.1157): 1010.4 ± 0.26 kg/m3 | mass density (308.15 K, m1 = 0.1332): 1012.82 ± 0.26 kg/m3 | mass density (308.15 K, m1 = 0.1542): 1015.68 ± 0.27 kg/m3 | mass density (308.15 K, m1 = 0.1773): 1018.81 ± 0.27 kg/m3 | mass density (308.15 K, m1 = 0.1964): 1021.38 ± 0.28 kg/m3 | mass density (308.15 K, m1 = 0.2144): 1023.8 ± 0.28 kg/m3 | mass density (308.15 K, m1 = 0.2229): 1024.93 ± 0.28 kg/m3 | mass density (308.15 K, m1 = 0.2509): 1028.64 ± 0.29 kg/m3 | mass density (308.15 K, m1 = 0.283): 1032.87 ± 0.3 kg/m3 | mass density (308.15 K, m1 = 0.2965): 1034.63 ± 0.3 kg/m3 | mass density (308.15 K, m1 = 0.3375): 1039.98 ± 0.32 kg/m3
